Here are results for three compounds from patent US10770169B2, “Method of providing a treatment to a subject based on a dynamic pathway map” (THE REGENTS OF THE UNIVERSITY OF CALIFORNIA, priority 2010, dated 2020).

“Also recorded” adds a separate entry of the source.

The subject of experiment [1] is breast cancer cell lines. The experiment in a line: Association of growth rate and response (2-way ANCOVA). The class given is cell-based, human. An excerpt:
To assess the effects of cell line class and growth rate on drug sensitivity, we performed a set of 2-way Analysis of Covariance (ANCOVA) tests, one for each of the three cell line classification schemes described above. […] We performed these analyses in R with the functions lm and ANOVA, which is available as part of the car package.

Experiment [2] concerns luminal, basal, claudin-low and ERBB2AMP breast cancer cell lines. The experiment in a line: Associations of clinically relevant subtypes and response (non-parametric ANOVA or t-test on GI50 ranks). The class given is cell-based, human. The method in brief: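 GI50 values were compared between cell-line subtype groups by non-parametric ANOVA or t-test on ranks. P-values from three test sets were combined and FDR-corrected. Significant three-group effects were followed by post-hoc comparison of each group against all others, and FDR p<0.20 counted as significant.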

Experiment [3] concerns panel of 55 breast cancer cell lines. The experiment in a line: Cell growth inhibition assay (Cell Titer Glo, 72 h, 9 doses; GI50, TGI, LC50). Conditions: value is the negative log10 of mol/L. Format: cell-based, human.
Experiment [4] relates to TCR-activated CD4(+) T cells. Conditions: cited from earlier work.

Regarding `O=c1[nH]cc(F)c(=O)[nH]1` [5-FU, 5-florouracil], the “significance of subtype and doubling time in ANCOVA model” value in experiment [1] (listed as 5-florouracil) is “not significant in the subtype test alone but showed strong significance in the ANCOVA model for both class and doubling time”; in experiment [1] (listed as 5′FU), “strong effects of both subtype and growth rate on response”. Besides, in experiment [1] (luminal and basal cell lines), the “response as a function of doubling time” value is “decreased as doubling time increased in both luminal and basal cell lines”.

Consider `Cc1cc(Nc2cc(N3CCN(C)CC3)nc(Sc3ccc(NC(=O)C4CC4)cc3)n2)n[nH]1` [VX-680], for which the “association of response with ERBB2 amplification” value in experiment [2] is given as “negatively associated with ERBB2 amplification”. Further, the “subtype-specific response (sensitivity by transcriptional subtype)” value in experiment [2] (GI50 across subtypes) is given as “ERBB2^AMP cell lines were resistant; also recorded: ERBB2AMP cell lines are resistant”. Moreover, in experiment [2] (Table 6, most sensitive subtype, FDR p<0.20), the Subtype specificity result is given as “not ERBB2AMP”. The GI50 in experiment [3] (AU565 cell line, censored GI50 values) worked out at 5.66; in experiment [3] (BT20 cell line, censored GI50 values), 4.72; in experiment [3] (BT474 cell line, censored GI50 values) it was 4.54; in experiment [3] (BT483 cell line, censored GI50 values), 5.44; in experiment [3] (HCC38 cell line, censored GI50 values), 6.94; in experiment [3] (HCC70 cell line, censored GI50 values), 5.35. Besides, the GI50 stood at 5.98 in experiment [3] (HCC1143 cell line, censored GI50 values); 6.93 in experiment [3] (HCC1187 cell line, censored GI50 values); 4.81 in experiment [3] (HCC1419 cell line, censored GI50 values); 5.10 in experiment [3] (HCC1428 cell line, censored GI50 values); 4.56 in experiment [3] (HCC1500 cell line, censored GI50 values); 5.10 in experiment [3] (HCC1937 cell line, censored GI50 values). Further, the GI50 in experiment [3] (HCC2185 cell line, censored GI50 values) came to 6.46; in experiment [3] (HCC3153 cell line, censored GI50 values), 4.76; in experiment [3] (MCF7 cell line, censored GI50 values), 5.08; in experiment [3] (MDAMB134VI cell line, censored GI50 values) it was 6.11; in experiment [3] (MDAMB175VII cell line, censored GI50 values), 4.61; in experiment [3] (MDAMB361 cell line, censored GI50 values), 5.63. In addition, the GI50 was 4.86 in experiment [3] (MDAMB415 cell line, censored GI50 values); 6.19 in experiment [3] (MDAMB436 cell line, censored GI50 values); 5.03 in experiment [3] (MDAMB453 cell line, censored GI50 values); 6.95 in experiment [3] (MDAMB468 cell line, censored GI50 values); 6.41 in experiment [3] (SUM52PE cell line, censored GI50 values); 5.07 in experiment [3] (SUM149PT cell line, censored GI50 values). Besides, the GI50 in experiment [3] (SUM159PT cell line, censored GI50 values) came to 6.37; in experiment [3] (SUM185PE cell line, censored GI50 values), 5.62; in experiment [3] (SUM1315MO2 cell line, censored GI50 values), 5.65; in experiment [3] (T47D cell line, censored GI50 values), 5.03; in experiment [3] (ZR75B cell line, censored GI50 values), 6.79; in experiment [3] (ZR751 cell line, censored GI50 values), 5.27. Also, the GI50 in experiment [3] (cell line AU565) was 5.66; in experiment [3] (cell line BT20), 4.72; in experiment [3] (cell line BT474), 4.54; in experiment [3] (cell line BT483), 5.44; in experiment [3] (cell line CAMA1), 4.58; in experiment [3] (cell line HCC38), 6.94. The GI50 in experiment [3] (cell line HCC70) is on record as 5.35; in experiment [3] (cell line HCC1143), 5.98; in experiment [3] (cell line HCC1187) it was 6.93; in experiment [3] (cell line HCC1419), 4.81; in experiment [3] (cell line HCC1428) it was 5.10; in experiment [3] (cell line HCC1500), 4.56. Further, the GI50 in experiment [3] (cell line HCC1937) was determined as 5.10; in experiment [3] (cell line HCC1954), 4.48; in experiment [3] (cell line HCC2185), 6.46; in experiment [3] (cell line HCC3153), 4.76; in experiment [3] (cell line MCF7), 5.08; in experiment [3] (cell line MDAMB134V), 6.11. Further, the GI50 in experiment [3] (cell line MDAMB175V) came to 4.61; in experiment [3] (cell line MDAMB361), 5.63; in experiment [3] (cell line MDAMB415) it was 4.86; in experiment [3] (cell line MDAMB436), 6.19; in experiment [3] (cell line MDAMB453) it was 5.03; in experiment [3] (cell line MDAMB468) it was 6.95. Besides, the GI50 amounted to 4.48 in experiment [3] (cell line SKBR3); 6.41 in experiment [3] (cell line SUM52PE); 5.07 in experiment [3] (cell line SUM149PT); 6.37 in experiment [3] (cell line SUM159PT); 5.62 in experiment [3] (cell line SUM185PE); 5.65 in experiment [3] (cell line SUM1315MO). Also, the GI50 in experiment [3] (cell line T47D) amounted to 5.03; in experiment [3] (cell line UACC812), 4.50; in experiment [3] (cell line ZR75B) it was 6.79; in experiment [3] (cell line ZR751), 5.27.

As for `Cc1ccc(NC(=O)c2ccc(CN3CCN(C)CC3)cc2)cc1Nc1nccc(-c2cccnc2)n1` [imatinib], in experiment [4], the interferon-gamma production result is listed as “inhibit interferon-gamma production”.
